Reference: patent US20220241314A1, “COMPOSITIONS AND METHODS FOR TREATMENT OF HEPATITIS B VIRUS INFECTION” (priority 2019, published 2022)
{ppp} = triphosphate

B1: poly-U/UC PAMP: ~100 nt PAMP motif from the HCV genome comprising 5′ppp and the poly U/UC region, recognized by RIG-I; formulated in liposome (nucleic acid)
chain: GGCCAUCCUGUUUUUUUCCCUUUUUUUUUUUCUUUUUUUUUUUUUUUUUUUUUUUUUUUUUUUUUUCUCCUUUUUUUUUCCUCUUUUUUUCCUUUUCUUUCCUUU
modifications: RNA, 5' {ppp}, backbone and methylation of C not given here; formulated in liposome
notes: ~100 nt PAMP motif from the HCV genome comprising 5′ppp and the poly U/UC region, recognized by RIG-I; formulated in liposome

Experiments:
HBV cccDNA [1] = assay: Decay kinetics of established cccDNA and HBsAg secretion under treatment from 3 dpi to 20 dpi; format: cell-based, HBV (Genotype D); settings: HepG2-hNTCP; for production and secretion of HBsAg / cccDNA levels over treatment time course (Southern blot, qPCR): treatment from 3 dpi through 20 dpi; for cccDNA levels over treatment time course (Southern blot, qPCR) / delay before cccDNA starts decreasing (τ) / half-life of cccDNA (t1/2): ETV 500 nM, F7 10 μM, poly-U/UC 100 ng/ml; for delay before cccDNA starts decreasing (τ) / half-life of cccDNA (t1/2): treatment from 3 dpi, model fit of RT-qPCR data, three replicates
Experimental: (5A) HBV infection and treatment schedule. On day 0 HepG2-hNTCP cells were infected with HBV at moi of 1000 Geq/cell, incubated for 24 hr, and media was replaced. On day three the cells were harvested or treated with DMSO, ETV (500 nM), F7 (10 μM), poly-U/UC (100 ng/ml), or with ETC combination with F7 or poly-U/UC, PAMP. Cells were harvested at the indicated points over a 20-day time course. (5B), (5C) DNA was isolated by Hirt extract and subjected to Southern blot analysis using an HBV-specific DNA probe. Percentage values below each lane indicate the relative amount of cccDNA compared to day three control prior to each treatment. The positions of mass markers are indicated. (5D) cccDNA levels were measured by RT-qPCR. Relative cccDNA values to mitochondrial DNA (MT-CO3) are shown. Statistical significance was determined using Student's t test. Data are presented as mean standard deviation (SD), *P<0.01, **P<0.005, ***P<0.001 and ns=non-significant (E) Half-life of cccDNA from RT-qPCR analyses was estimated from the simultaneous fitting of three replicates under each treatment strategy. C(t) is the % values of cccDNA at time ‘t’ post-treatment, C(0) is the % values of cccDNA at the start of the treatment. (5F) HBsAg across the time course for each treatment series. Statistical significance as determined using Student's t test. Data are presented as mean standard deviations (SD), **P<0.005, and ns=non-significant.
ETV is a nucleoside analog that prevents the viral reverse transcription and replication of new synthesized HBV DNAs, thereby preventing the replenishment of cccDNA by de novo formation. ETV was applied to HBV-infected cultures at a 100-fold IC50 (Langley, D. R., et al. (2007). Inhibition of Hepatitis B Virus Polymerase by Entecavir. Journal of virology 81, 3992-4001) thereby allowing for the measurement of cccDNA half-life under conditions in which levels are sustained only from the initial cccDNA pool. Cells were then harvested over a treatment time course, and DNA extracts were analyzed by Southern blot and qPCR assay. […] J Hepatol 69, 1231-1241). […] Enhanced cccDNA decay kinetics by F7 treatment was also confirmed by RT-PCR analysis (FIG. 5D). […] Thus, F7 and poly-U/UC PAMP impart the therapeutic decay of established cccDNA.
Reverse transcription quantitative real time qPCR (RT-qPCR) analysis: Total cellular RNAs were extracted from cells using TRIZOL reagent and the manufacturers protocol (Invitrogen). cDNA was synthesized from the purified RNA by both random and oligo (dT) priming using iScript select cDNA synthesis kit (Biorad, Inc.). For HBV cccDNA expression analysis, total DNA was extracted using the DNeasy kit (QIAGEN). For selective cccDNA PCR analysis, isolated DNAs were treated with 10 Units of T5 exonuclease (NEB) for 30 min in 10 μl of reaction volume in 37° C., followed by heat-inactivation at 95° C. for 5 min and 4-fold dilution with Nuclease-free water. For extra-cellular HBV DNA quantification, an external HBV plasmid standard was used to program the PCR (Ko, C., et al. (2018), supra).

HBV cccDNA [2] = assay: cccDNA levels in HBV-infected RIG-I or MDA5 knockout HepG2-hNTCP cells (Southern blot); format: cell-based, HBV (Genotype D); settings: HepG2-hNTCP-NT and HepG2-hNTCP-MKO cells, single treatment at 1 dpi, harvested 3 dpi
Experimental: FIGS. 6A-6D illustrate that F7 and poly-U/UC PAMP specifically signal IRF3 activation through RIG-I to suppress HBV cccDNA. (6A) F7 was administered for 24 hours to HepG2-hNTCP-NT (expressing non-targeting guide RNA), RKO (RIG-I knockout expressing RIG-I-targeting guide RNA), and MKO (MDA5-knock out expressing MDA5-targeting guide RNA). Cells were harvested and analyzed by immunoblot. The levels of protein expression by p-IRF3 (S386 phosphorylated, active IRF3), IRF3 (total IRF), IFIT1, RIG-I, and MDA5 relative to the expression level of tubulin were determined using respective antibodies. (6B) HepG2-hNTCP-NT, RKO, and MKO cells were treated with 100 ng,/ml of X-RNA or 100 ng/ml or 200 ng/ml of poly-U/UC PAMP for 24 hr. Cells were harvested and analyzed by immunoblot as in (6A). (6C and 6D) Cells were infected with HBV at moi of 1000 Geq/cell. After 24 hour cultures were treated with DMSO (−; negative control), CsA (treatment control), (6C) 10 μM) or F7 or (6D) X RNA or poly-U/UC PAMP. Three days later the cells were harvested, Hirt extracts prepared and subjected to Southern blot analysis using as HBV-DNA probe. The positions of mass markers are indicated. Values beneath each lane show percent cccDNA remaining compared to control treatment. […]

Row | Molecule | production and secretion of HBsAg (HBV cccDNA [1]) | cccDNA levels over treatment time course (Southern blot, qPCR) (HBV cccDNA [1]) | delay before cccDNA starts decreasing (τ) (HBV cccDNA [1]) | half-life of cccDNA (t1/2) (HBV cccDNA [1]) | cccDNA levels (HBV cccDNA [2])
1 | O=C(Nc1ccc2nc(NC(=O)c3ccc4ccccc4c3)sc2c1)c1ccccc1 [F7, N-(6-benzamido-1,3-benzothiazol-2-yl)naphthalene-2-carboxamide] | suppressed HBsAg secretion | stimulated the decay of cccDNA | 4.0 days | 209 h | reduced cccDNA levels
2 | B1 | suppressed HBsAg secretion | reduced the cccDNA abundance | 3.8 days | 185 h | cccDNA was suppressed
